Data as given in PMC6356742, “Novel Characteristics of Mitochondrial Electron Transport Chain from Eimeria tenella” (Genes, 2019).
“Also recorded” adds a separate entry of the source. Where two headings read alike, the source gives them in different places.

Tests used:
[1] = target: succinate-cytochrome c reductase activity (Complex II-III); assay: Inhibition of succinate-cytochrome c reductase activity (Complex II-III) of E. tenella mitochondria-rich fraction; format: biochemical, Eimeria tenella; settings: for IC50: E. tenella mitochondria-rich fraction, complex II-III activity, read-out: IC50 of Succinate-cyt c Activity
Procedure: (§1) All enzyme assays were performed using 5–10 µg of the mitochondria-rich fraction using black quartz cuvettes in 0.6 mL reaction mixture at 25 °C. The reagents used in each assay were mixed with a reaction buffer containing 50 mM potassium phosphate (pH 7.4) (KPi Buffer) and 2 mM EDTA.
Cytochrome c–linked NADH, G3P, malate, succinate, and DHO dehydrogenase activities were determined in a reaction mixture containing 30 µM horse heart cytochrome c and 2 mM KCN at 550 nm (ε = 19 mM^−1 cm^−1) by adding 0.2 mM NADH, 5 mM malate, 5 mM G3P, 8.3 mM succinate, and 0.4 mM DHO, respectively, into the reaction buffer.
(§2) […]; As the positive control for complex II-III inhibition assay, 0.1 μM of stigmatellin (complex III inhibitor) was used.

E. tenella complex II = E. tenella complex II (Eimeria tenella, UniProt U6KGY0+U6KWN9); assay: Inhibition of succinate-dUQ (SQR) activity of E. tenella complex II; format: biochemical; settings: for Inhibition of E. tenella complex II: even at higher concentration of 50 μM
Procedure: as §1
Individual G3PDH, MQO, SDH, and DHODH activities were assayed at 278 nm in the presence of each substrate as described above, however, instead of cytochrome c, 50 µM of decylubiquinone (dUQ) (ε = 15 mM^−1 cm^−1) was added. The NDH-2 activity was measured following the consumption of NADH at 340 nm.
as §2

P. y. yoelii complex II = settings: cited from earlier work; for IC50: P. y. yoelii, read-out: IC50 of Succinate-cyt c Activity
Succinate-cyt c activity [2] = settings: Rat; cited from earlier work
bovine complex II = settings: cited from earlier work
[3] = system: NADH oxidase activity (NDH-2-Complex III-IV); assay: NADH oxidase activity (NDH-2-Complex III-IV) of E. tenella mitochondria-rich fraction; format: biochemical, Eimeria tenella; settings: for NADH oxidase specific activity after addition: consecutive additions: 2 mM KCN, then 2 mM fumarate, then 5 mM malonate, without additions 5.9 ± 0.9, experiment C
Succinate-cyt c activity [4] = settings: Porcine; cited from earlier work
Ascaris suum complex II = settings: cited from earlier work
complex II [5] = system: complex II; design: method as in PMID 19505951; settings: read-out: IC50 for complex II from Leishmania tarentolae; cited from earlier work
complex II [6] = system: complex II; design: method as in PMID 19505951; settings: read-out: IC50 for complex II from L. donovani; cited from earlier work
complex II [7] = system: complex II; design: method as in PMID 19505951; settings: read-out: IC50 for complex II from Trypanosoma brucei; cited from earlier work
complex II [8] = system: complex II; design: method as in PMID 19505951; settings: read-out: IC50 for complex II from T. cruzi; cited from earlier work

E. tenella complex II, sequence (U6KGY0 entry or part of it): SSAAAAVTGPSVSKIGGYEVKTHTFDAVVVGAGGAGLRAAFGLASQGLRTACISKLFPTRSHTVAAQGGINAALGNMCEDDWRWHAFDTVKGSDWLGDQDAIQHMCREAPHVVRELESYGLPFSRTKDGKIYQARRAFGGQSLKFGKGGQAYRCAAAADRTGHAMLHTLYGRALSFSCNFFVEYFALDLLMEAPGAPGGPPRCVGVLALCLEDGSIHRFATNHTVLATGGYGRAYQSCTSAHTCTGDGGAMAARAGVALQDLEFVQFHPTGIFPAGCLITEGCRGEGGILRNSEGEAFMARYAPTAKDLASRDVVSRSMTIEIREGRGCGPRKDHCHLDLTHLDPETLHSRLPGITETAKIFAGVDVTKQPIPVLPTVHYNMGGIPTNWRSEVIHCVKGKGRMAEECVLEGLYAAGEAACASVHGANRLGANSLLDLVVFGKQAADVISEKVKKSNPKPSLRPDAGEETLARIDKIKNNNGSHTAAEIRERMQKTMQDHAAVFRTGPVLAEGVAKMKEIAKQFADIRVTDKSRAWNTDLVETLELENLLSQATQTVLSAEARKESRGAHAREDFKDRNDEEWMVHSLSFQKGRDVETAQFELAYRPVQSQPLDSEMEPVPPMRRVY
E. tenella complex II, sequence (U6KWN9 entry or part of it): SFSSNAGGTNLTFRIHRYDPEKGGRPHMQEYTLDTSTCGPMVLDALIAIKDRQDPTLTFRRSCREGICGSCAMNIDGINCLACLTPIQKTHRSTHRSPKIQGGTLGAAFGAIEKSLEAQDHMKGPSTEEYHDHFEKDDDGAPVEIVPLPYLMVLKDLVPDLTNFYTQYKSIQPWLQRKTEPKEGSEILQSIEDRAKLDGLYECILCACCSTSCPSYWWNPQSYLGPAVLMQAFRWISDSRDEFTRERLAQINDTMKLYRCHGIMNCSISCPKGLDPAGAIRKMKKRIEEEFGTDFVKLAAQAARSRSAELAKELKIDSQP

In the case of `CC1=C(C(=O)Nc2ccccc2)SCCO1` [Carboxin, carboxin], the IC50 [1] is given as > 50 µM, the “Inhibition of E. tenella complex II” value (E. tenella complex II) is given as “did not inhibit” and the IC50 (P. y. yoelii complex II) is given as 3.6 ± 1 µM. For the same compound, the IC50 (Succinate-cyt c activity [2]) was 3.8 ± 0.1 µM and the IC50 (bovine complex II) was 1 µM.

For `COc1[nH]c(=O)c(C(=O)[C@@H](C)C[C@H](C)[C@@H](Cl)CCl)c(O)c1OC` [Atpenin A5, atpenin A5], the IC50 [1] is listed as > 50 µM, the IC50 (P. y. yoelii complex II) is listed as 4.2 ± 0.2 µM and the “Fold lower sensitivity of P. y. yoelii complex II to atpenin A5” value (P. y. yoelii complex II) is listed as “about 600 fold”. The IC50 (Succinate-cyt c activity [2]) was 0.007 ± 0.0003 µM and the IC50 (bovine complex II) was 0.004 µM.

In the case of `C/C=C(C)/C=C/C=C/[C@H](OC)[C@@H](C)[C@@H](OC)[C@@H](C)CCc1oc2c(O)c(OC)cc(OC)c2c(=O)c1C` [Stigmatellin, stigmatellin], the “Percentage inhibition of succinate-cyt c activity” value ([1]; E. tenella, 100 nM stigmatellin, positive control for complex III inhibition) is reported as 78.4 ± 13.1% ^2.

In the case of `O=C(O)CC(=O)O` [malonate], the “Effect on NADH oxidase / fumarate-dependent NADH oxidation activity” value ([3]; 2 mM KCN on NADH oxidase, 5 mM malonate on fumarate-restored activity in presence of KCN) is reported as “abolished; also recorded: completely inhibited” and the “NADH oxidase specific activity after addition” value [3] is reported as −0.5 ± 0.3 μmol/min/mg protein.

With `O=C(O)/C=C/C(=O)O` [fumarate] the “NADH oxidase specific activity after addition” value [3] was 1.3 ± 0.3 μmol/min/mg protein.

For `CC(C)Oc1cccc(NC(=O)c2ccccc2C(F)(F)F)c1` [Flutolanil, flutolanil], the IC50 [1] is given as > 50 µM, the “Inhibition of E. tenella complex II” value (E. tenella complex II) is given as “did not inhibit” and the IC50 (P. y. yoelii complex II) is given as > 100 µM. For the same compound, the IC50 (Succinate-cyt c activity [2]) was > 100 µM, the IC50 (Succinate-cyt c activity [4]) was > 50 µM and the IC50 (Ascaris suum complex II) was 0.081 µM.

With `Cc1cc(O)c2c(c1)O[C@@]1(C)CC[C@H]3C(C)(C)CCC[C@]34CO[C@@H]2[C@H]41` [Siccanin, siccanin] the IC50 [1] was 4 ± 0.6 µM, the “Inhibition of the SQR activity of complex II” value (E. tenella complex II; E. tenella) was “did not inhibit” and the IC50 (E. tenella complex II; E. tenella, SQR activity of complex II, read-out: IC50 determined for succinate-dUQ activity) was > 50 µM. The “Inhibition of E. tenella complex II” value (E. tenella complex II) was “did not inhibit”, the IC50 (Succinate-cyt c activity [2]) was 9.3 ± 1 µM and the IC50 (Succinate-cyt c activity [4]) was 861 ± 822 µM. The IC50 (complex II [5]) was 0.19 µM, the IC50 (complex II [6]) was 1.17 µM and the IC50 (complex II [7]) was 0.368 µM. For the same compound, the IC50 (complex II [8]) was 1.48 µM.
